Among the test systems are ACHN renal; EKVX NSCLC; HCC-2998 colon; MALME-3M melanoma; NCI-H460 lung; OVCAR-5 ovarian; UO-31 renal; HL-60(TB) leukemia; MCF7 breast; T-47D breast.
Assay in all cases: inhibition of tumour cell growth, NCI panel, 48 h

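How tested: cells in 96-well plates exposed to compound for 48 hours at five concentrations. GI50: concentration for 50% inhibition of growth. Definition used: TGI = concentration required for complete inhibition of growth.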 A value given as a limit tells only on which side of the number the result lay.

Here are results for 15 compounds from PubChem BioAssay (NCI).

`COC(c1cccc(C(O)(C(F)(F)F)C(F)(F)F)c1)(C(F)(F)F)C(F)(F)F`: the TGI stood at 29.2 µM with ACHN renal; 33.3 µM with EKVX NSCLC; 21.7 µM with HCC-2998 colon; 35.3 µM with MALME-3M melanoma; 41.5 µM with NCI-H460 lung; 32.4 µM in the assay with OVCAR-5 ovarian. Besides, the TGI in the assay with UO-31 renal is 34.2 µM.
Consider `O=C(C=Nc1ccccc1C(=O)[O-])c1cccs1.O=C(C=Nc1ccccc1C(=O)[O-])c1cccs1.[Co+2]`, for which the TGI with ACHN renal, in the assay with HCC-2998 colon, in the assay on HL-60(TB) leukemia, in the assay on MALME-3M melanoma, in the assay with NCI-H460 lung and in the assay with OVCAR-5 ovarian was above 100 µM each time. The same compound returned a TGI in the assay on UO-31 renal above 100 µM.
Regarding `O=C(O)C1=CCCc2ccc3ccccc3c21`, the TGI in the assay on ACHN renal, in the assay on EKVX NSCLC, with MALME-3M melanoma, with NCI-H460 lung, with OVCAR-5 ovarian and with UO-31 renal was above 100 µM each time.
In the case of `COc1cc2c(cc1O)-c1c(cnn1-c1ccc([N+](=O)[O-])cc1)CCC2`, the TGI in the assay with ACHN renal was 14.6 µM; in the assay on EKVX NSCLC, 80.5 µM; with MALME-3M melanoma, 29.2 µM; with MCF7 breast it was above 100 µM; in the assay with NCI-H460 lung, above 100 µM; in the assay with OVCAR-5 ovarian, 61.2 µM. Besides, the TGI with T-47D breast was above 100 µM.
Turning to `CCN(CC)CCCn1cnc2ncccc2c1=O`, the TGI with ACHN renal, in the assay with EKVX NSCLC, with MALME-3M melanoma, in the assay on NCI-H460 lung, with OVCAR-5 ovarian and in the assay with UO-31 renal was above 100 µM throughout.
For the compound `CC(=O)Oc1cc(C)c2c(c1OC(C)=O)CC1(O2)[C@@H](C)CCC2[C@@]3(C)CC[C@H](OC(C)=O)C(C)(C)C3CC[C@]21C` (some centres undefined), the TGI in the assay on ACHN renal came to 7.63 µM; with EKVX NSCLC it was 11.4 µM; in the assay on HCC-2998 colon, 19.2 µM; in the assay on NCI-H460 lung it was 10.8 µM; in the assay with OVCAR-5 ovarian it was 17.4 µM; with UO-31 renal, 3.93 µM.
As to `C/C(=N\NC(N)=S)c1cc(C)c(C)cc1C`, the TGI in the assay on ACHN renal was above 100 µM; in the assay with EKVX NSCLC it was above 100 µM; in the assay with HCC-2998 colon, above 100 µM; in the assay with HL-60(TB) leukemia, 65.5 µM; with MALME-3M melanoma it was 92 µM; with NCI-H460 lung, above 100 µM. Also, the figures for the TGI with OVCAR-5 ovarian and in the assay on UO-31 renal were 46.5 µM and above 100 µM, respectively.
Consider `Nc1nc(N)c(Cn2ccnc2)c(=O)[nH]1`, for which the TGI in the assay with ACHN renal, with EKVX NSCLC, with MALME-3M melanoma, in the assay on MCF7 breast, in the assay on NCI-H460 lung and with OVCAR-5 ovarian was above 100 µM each time. Moreover, the TGI in the assay on T-47D breast and in the assay with UO-31 renal was above 100 µM throughout.
Regarding `O=C(CCC(=O)Nc1cccc(Cl)c1)CC(=O)c1ccc(F)cc1`, the TGI in the assay with ACHN renal, in the assay with HCC-2998 colon, in the assay with HL-60(TB) leukemia, in the assay on MALME-3M melanoma, with NCI-H460 lung and in the assay with OVCAR-5 ovarian was above 100 µM in each case. Moreover, in the assay on UO-31 renal, the TGI was above 100 µM.
`[Cl][Sn]([Cl])([c]1ccccc1)[c]1ccccc1`: the GI50 with ACHN renal is 14.4 µM; with EKVX NSCLC, 17.8 µM; in the assay on HCC-2998 colon, 15 µM; with HL-60(TB) leukemia, 4.03 µM; with MALME-3M melanoma, 2.68 µM; with OVCAR-5 ovarian it was 15.8 µM. Also, in the assay on UO-31 renal, the GI50 was 19.4 µM. For the same compound, the TGI with ACHN renal is 27.5 µM; in the assay on EKVX NSCLC, 32.1 µM; in the assay on HCC-2998 colon, 28.5 µM; in the assay on HL-60(TB) leukemia, 31.1 µM; in the assay on MALME-3M melanoma it was 8.01 µM; in the assay with OVCAR-5 ovarian, 29.3 µM. Further, in the assay on UO-31 renal, the TGI is 33.5 µM.
`CSc1cccc(-n2c3nc(=O)n(C)c(=O)c-3nc3ccccc32)c1`: the TGI stood at 13.2 µM in the assay with ACHN renal; 36.6 µM in the assay with EKVX NSCLC; 16.5 µM with HCC-2998 colon; 16.7 µM in the assay on HL-60(TB) leukemia; 11.4 µM with MALME-3M melanoma; 10.2 µM with NCI-H460 lung. Further, the TGI in the assay on OVCAR-5 ovarian was 32 µM; in the assay with UO-31 renal, 32.9 µM.
For the compound `C#CCN(Cc1nc2cc(C(F)(F)F)ccc2nc1-c1ccccc1)c1ccc(OC(F)(F)F)cc1`, the GI50 is 50.2 µM in the assay with ACHN renal; 32.6 µM in the assay with EKVX NSCLC; 30.3 µM with HCC-2998 colon; above 100 µM with MALME-3M melanoma; 32 µM with MCF7 breast; 38 µM in the assay with NCI-H460 lung. For the same compound, the GI50 is above 100 µM in the assay with OVCAR-5 ovarian, 39.1 µM in the assay with T-47D breast and 50.7 µM in the assay on UO-31 renal. In addition, the TGI in the assay on ACHN renal was above 100 µM; with EKVX NSCLC, above 100 µM; in the assay with HCC-2998 colon, 91.9 µM; in the assay with MALME-3M melanoma, above 100 µM; in the assay with MCF7 breast it was above 100 µM; with NCI-H460 lung it was above 100 µM. The TGI in the assay on OVCAR-5 ovarian, in the assay on T-47D breast and in the assay with UO-31 renal was above 100 µM throughout.
Regarding `CCCCCCCC(=O)NCC(O)CNC(=O)CCCCCCC`, the TGI in the assay on EKVX NSCLC, in the assay with HCC-2998 colon, in the assay with HL-60(TB) leukemia, in the assay with MALME-3M melanoma, with NCI-H460 lung and in the assay with OVCAR-5 ovarian was above 100 µM each time. This compound had a TGI in the assay on UO-31 renal above 100 µM.
Take `CCOC(=O)c1c(-c2ccccc2)oc(-c2ccccc2)c1C(=O)OCC`: the TGI in the assay with ACHN renal, in the assay on EKVX NSCLC, with HCC-2998 colon, in the assay on HL-60(TB) leukemia, in the assay on MALME-3M melanoma and with OVCAR-5 ovarian was above 100 µM in each case. In the assay with UO-31 renal, this compound showed a TGI above 100 µM.
For `CC(=O)CCc1ccc(OC2OC(COC(=O)c3cc(O)c(O)c(O)c3)C(O)C(O)C2OC(=O)/C=C/c2ccccc2)cc1` (centres undefined), the GI50 is 25.6 µM with ACHN renal; 40.3 µM in the assay with EKVX NSCLC; 15.3 µM in the assay on HCC-2998 colon; 26.8 µM in the assay on MALME-3M melanoma; 22.7 µM in the assay on MCF7 breast; 21 µM in the assay on NCI-H460 lung. The GI50 was 15.6 µM with OVCAR-5 ovarian, 26.1 µM with T-47D breast and 30.2 µM in the assay with UO-31 renal. In addition, the TGI in the assay with ACHN renal turned out to be 75.4 µM; in the assay with EKVX NSCLC it was 72 µM; with HCC-2998 colon, 30.2 µM; in the assay with MALME-3M melanoma it was 46.2 µM; in the assay on MCF7 breast, 47.1 µM; with NCI-H460 lung it was 43.5 µM. The TGI is 32.1 µM in the assay on OVCAR-5 ovarian, above 100 µM in the assay with T-47D breast and above 100 µM in the assay on UO-31 renal.
